Patent US11098061B2 (Celgene CAR LLC, priority 2013, dated 2021)
pEC50, pIC50: −log10 of the molar value.

How the values were obtained:
MK2 [1] = target: T1, MK2 (Homo sapiens (Human), UniProt P49137); experiment: MK2 cellular assay (Hsp27 phosphorylation in Thp-1 cells); format: cell-based; conditions: differentiated Thp-1 cells, compound 1 hour, 50 ng/ml LPS 15 minutes, phosphorylation of Hsp27; read-out: MK2EC50
Method: Compounds were assayed in Thp-1 human acute monocytic leukemia cells to measure inhibition of MK2 activity. Thp-1 were grown in suspension in T225 flasks. Two days prior to assay, Thp-1 cells were spun down, counted and plated at 1×10^6 cells per well of a 12 well plate in complete media containing 10 ng/ml PMA (phorbol myristate acetate) to differentiate the cells. On day of assay, cells were washed with complete media, and compound was added to differentiated Thp-1 cells for 1 hour. Cells were washed again, and complete media containing 50 ng/ml LPS (lipopolysaccharide) was added. After 15 minutes, cells were washed once with PBS and lysed on ice with BioRad Bioplex lysis buffer. 20 μg total protein from lysates were loaded on gel and blots were probed for phosphorylation of the MK2 substrate Hsp27. Dose response inhibition of MK2 signaling in differentiated Thp-1 cells was used to determine the EC50 for compounds reported in Table A in the column entitled “MK2 EC50.”

[2] = target: p38a activated, mitogen-activated protein kinase-activated protein kinase 2 (MAPKAP-K2 or MK-2) enzyme (Homo sapiens (Human), UniProt P49137); experiment: MK2 Omnia continuous-read kinase assay for compound potency; format: biochemical; conditions: [MK-2]=0.4 nM, [ATP]=1.0 mM, [ST3-Sox]=10 μM
p38a activated, mitogen-activated protein kinase-activated protein kinase 2 (MAPKAP-K2 or MK-2) enzyme, sequence (P49137 whole entry): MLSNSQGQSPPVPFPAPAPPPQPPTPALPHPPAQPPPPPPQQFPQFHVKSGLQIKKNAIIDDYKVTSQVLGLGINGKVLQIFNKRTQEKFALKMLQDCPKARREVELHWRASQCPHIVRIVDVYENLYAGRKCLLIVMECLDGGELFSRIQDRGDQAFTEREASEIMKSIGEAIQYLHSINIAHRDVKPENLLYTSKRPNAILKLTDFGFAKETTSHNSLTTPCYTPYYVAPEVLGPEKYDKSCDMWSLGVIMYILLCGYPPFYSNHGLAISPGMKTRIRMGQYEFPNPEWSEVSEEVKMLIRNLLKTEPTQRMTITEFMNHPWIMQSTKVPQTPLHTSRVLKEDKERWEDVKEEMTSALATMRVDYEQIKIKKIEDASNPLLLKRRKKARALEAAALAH
Description: The protocol below describes a continuous-read kinase assay optimized to measure potency of compounds against p38a activated, mitogen-activated protein kinase-activated protein kinase 2 (MAPKAP-K2 or MK-2) enzyme. The mechanics of the assay platform are best described by the vendor (Invitrogen, Carlsbad, Calif.) on their website at the following URL: invitrogen.com/search/global/searchAction. action?resultPage=1 &resultsPerPage=15 &query=om nia&personaFilterTerm=Support+%26+Troubleshoot
Kinase reactions were started with the addition of 40 μL of MK-2 enzyme and monitored every 71 seconds for 30-240 minutes at λex360/λem485 in a Synergy^2, Synergy^4 or Synergy H^4 plate reader from BioTek (Winooski, Vt.). […] Initial velocity (0 minutes to +30 minutes) from each reaction was estimated from the slope of a plot of relative fluorescence units vs time (minutes) and normalized to the no enzyme and no inhibitor control groups for % Inhibition. The resulting % Inhibition values were then plotted against inhibitor concentration to estimate IC50 from log[Inhibitor] vs Response, Variable Slope model in GraphPad Prism from GraphPad Software (San Diego, Calif.).
[MK-2]=0.4 nM, [ATP]=1.0 mM and [ST3-Sox]=10 μM (ATP ^appKM=8-10 μM)

MK2 [3] = target: T1, MK2; experiment: MK2 modification assessment by whole protein mass spectrometry; format: binding; conditions: intact MK2, 60 min, 10-fold excess of compound to protein
Method: Modification of MK2 is measured by whole protein MS analysis. […] 5 μL aliquots of the samples were diluted with 15 μL of 0.2% TFA prior to micro C4 ZipTipping directly onto the MALDI target using sinapinic acid as the desorption matrix (10 mg/ml in 0.1% TFA:Acetonitrile 50:50). Analysis was performed on a AB Sciex 4800 MALDI TOF/TOF retro fitted with an HM2 detector (CovalX). Percent modification of target MK2 (i.e., the percent of total MK2 modified by the test compound) for each compound was calculated by subtracting the centroid mass of the compound treated MK2 from the centroid mass of the control MK2 and dividing that value with the mass of the compound.

T1 sequence (P49137 whole entry): as above

pEC50 (MK2 [1])	pIC50 [2]	MK2 Mass Mod (MK2 [3])	SMILES
6.30 to 7.00	> 7.00	E (mass modification of ≥70%)	C=CC(=O)N1CC(C)Oc2ccc(NC(=O)c3ccc4cc5n(c4c3)C3(CCC3)CNC5=O)cc21 (racemic) [Compound V-50, N-(4-acryloyl-2-methyl-3,4-dihydro-2H-benzo[b][1,4]oxazin-6-yl)-1′-oxo-2′,3′-dihydro-1′H-spiro[cyclobutane-1,4′-pyrazino[1,2-a]indole]-7′-carboxamide (racemic)]
< 6.00	< 6.00	F (mass modification of 31-69%)	C=CC(=O)NC1CCCC1NC(=O)c1ccc2cc3n(c2c1)C1(CCC1)CNC3=O (racemic) [Compound V-56, N-trans-(2-acrylamidocyclopentyl)-1′-oxo-2′,3′-dihydro-1′H-spiro[cyclobutane-1,4′-pyrazino[1,2-a]indole]-7′-carboxamide (racemic)]
< 6.00	> 7.00	E (mass modification of ≥70%)	C=CC(=O)N1CCOc2ccc(NC(=O)c3ccc4cc5n(c4c3)CCNC5=O)cc21 [Compound V-6, N-(4-acryloyl-3,4-dihydro-2H-benzo[b][1,4]oxazin-6-yl)-1-oxo-1,2,3,4-tetrahydropyrazino[1,2-a]indole-7-carboxamide]
6.30 to 7.00	> 7.00	E (mass modification of ≥70%)	C=CC(=O)Nc1cc(NC(=O)c2ccc3cc4n(c3c2)C2(CCC2)CNC4=O)ccc1N1CCN(C)CC1 [Compound V-15, N-(3-acrylamido-4-(4-methylpiperazin-1-yl)phenyl)-1′-oxo-2′,3′-dihydro-1′H-spiro[cyclobutane-1,4′-pyrazino[1,2-a]indole]-7′-carboxamide]
6.30 to 7.00	> 7.00	E (mass modification of ≥70%)	C=CC(=O)N1CCc2ccc(NC(=O)c3ccc4cc5n(c4c3)C3(CCC3)CNC5=O)cc21 [Compound V-45, N-(1-acryloylindolin-6-yl)-1′-oxo-2′,3′-dihydro-1′H-spiro[cyclobutane-1,4′-pyrazino[1,2-a]indole]-7′-carboxamide]
6.30 to 7.00	> 7.00	E (mass modification of ≥70%)	C=CC(=O)N1CC(C)(C)Oc2ccc(NC(=O)c3ccc4cc5n(c4c3)C3(CCC3)CNC5=O)cc21 [Compound V-51, N-(4-acryloyl-2,2-dimethyl-3,4-dihydro-2H-benzo[b][1,4]oxazin-6-yl)-1′-oxo-2′,3′-dihydro-1′H-spiro[cyclobutane-1,4′-pyrazino [1,2-a]indole]-7′-carboxamide]
6.30 to 7.00	6.30 to 7.00	E (mass modification of ≥70%)	C=CC(=O)Nc1cc(NC(=O)c2ccc3cc4n(c3c2)C2(CCC2)CNC4=O)ccc1F [Compound V-54, N-(3-acrylamido-4-fluorophenyl)-1′-oxo-2′,3′-dihydro-1′H-spiro[cyclobutane-1,4′-pyrazino[1,2-a]indole]-7′-carboxamide]
6.30 to 7.00	> 7.00	E (mass modification of ≥70%)	C=CC(=O)Nc1ncccc1NC(=O)c1ccc2cc3n(c2c1)C1(CCC1)CNC3=O [Compound V-57, N-(2-acrylamidopyridin-3-yl)-1′-oxo-2′,3′-dihydro-1′H-spiro[cyclobutane-1,4′-pyrazino[1,2-a]indole]-7′-carboxamide]
6.30 to 7.00			C=CC(=O)N1CCC[C@H](NC(=O)c2ccc3sc4c(c3c2)NC[C@@H](C)NC4=O)C1 [III-41]
> 7.00			C=CS(=O)(=O)N1CCC[C@H](NC(=O)c2ccc3sc4c(c3c2)NC[C@@H](C)NC4=O)C1 [III-43]
> 7.00	> 7.00		C=CC(=O)Nc1cc(-c2ccc3c(ccc4sc5c(c43)NC[C@@H](C)NC5=O)n2)ccc1OC(F)(F)F [III-45, (R)—N-(5-(10-methyl-8-oxo-9,10,11,12-tetrahydro-8H-[1,4]diazepino[5′,6′:4,5]thieno[3,2-f]quinolin-3-yl)-2-(trifluoromethoxy)phenyl)acrylamide]
	6.00 to 6.30	G (mass modification ≤30%)	C=CC(=O)Nc1cc(NC(=O)c2ccc3sc4c(c3c2)NC[C@@H](C)NC4=O)ccc1C(F)(F)F [III-57, (R)—N-(3-acrylamido-4-(trifluoromethyl)phenyl)-3-methyl-5-oxo-2,3,4,5-tetrahydro-1H-benzo[4,5]thieno[3,2-e][1,4]diazepine-9-carboxamide]
	6.00 to 6.30	G (mass modification ≤30%)	C=CC(=O)Nc1cc(Nc2c(C)c(NC3CCCNC3)nc3ccnn23)ccc1OCC (centres unmarked) [IV-1, N-(2-ethoxy-5-((6-methyl-5-(piperidin-3-ylamino)pyrazolo [1,5-a]pyrimidin-7-yl)amino)phenyl)acrylamide]
	< 6.00	G (mass modification ≤30%)	C=CC(=O)Nc1cc(-c2cc(Nc3c(N[C@H](C)c4ccccc4)c(=O)c3=O)ccn2)ccc1OC [VI-9, (R)—N-(5-(4-((3,4-dioxo-2-((1-phenylethyl)amino)cyclobut-1-en-1-yl)amino)pyridin-2-yl)-2-methoxyphenyl)acrylamide]

The next lines start with the molecule.

SMILES	pEC50 (MK2 [1])	pIC50 [2]	MK2 Mass Mod (MK2 [3])
C=CC(=O)Nc1ccccc1C(=O)Nc1cc(-c2cc3c([nH]2)C2(CCCNC2)CNC3=O)ccn1 (racemic) [Compound I-4, 2-acrylamido-N-(4-(4′-oxo-1′,4′,5′,6′-tetrahydrospiro[piperidine-3,7′-pyrrolo[3,2-c]pyridin]-2′-yl)pyridin-2-yl)benzamide]	< 6.00	> 7.00	E (mass modification of ≥70%)
C=CC(=O)Nc1cc(-c2nccc(-c3cc4c([nH]3)C3(CCCNC3)CNC4=O)n2)ccc1OCCOC (racemic) [Compound I-7, N-(2-(2-methoxyethoxy)-5-(4-(4′-oxo-1′,4′,5′,6′-tetrahydrospiro[piperidine-3,7′-pyrrolo[3,2-c]pyridin]-2′-yl)pyrimidin-2-yl)phenyl)acrylamide]	6.00 to 6.30	> 7.00	E (mass modification of ≥70%)
C=CC(=O)Nc1cc(C(=O)Nc2cc(-c3cc4c([nH]3)C3(CCCNC3)CNC4=O)ccn2)ccc1OC(F)(F)F (racemic) [Compound I-23, 3-acrylamido-N-(4-(4′-oxo-1′,4′,5′,6′-tetrahydrospiro[piperidine-3,7′-pyrrolo[3,2-c]pyridin]-2′-yl)pyridin-2-yl)-4-(trifluoromethoxy)benzamide]	6.00 to 6.30	> 7.00	E (mass modification of ≥70%)
C=CC(=O)Nc1cc(-c2cc(-c3cc4c([nH]3)C3(CCCNC3)CNC4=O)ccn2)ccc1OCCOC (centres unmarked) [Compound I-3]	< 6.00	> 7.00	E (mass modification of ≥70%)
C=CC(=O)Nc1cc(-c2cc(-c3cc4c([nH]3)C3(CCCNC3)CNC4=O)ccn2)ccc1F (centres unmarked) [Compound I-8]	< 6.00	> 7.00	E (mass modification of ≥70%)
C=CC(=O)Nc1cc(-c2cc(-c3cc4c([nH]3)C3(CCCNC3)CNC4=O)ccn2)cc(C(F)(F)F)c1 (centres unmarked) [Compound I-9]	< 6.00	> 7.00	E (mass modification of ≥70%)
C=CC(=O)Nc1cc(C)cc(-c2cc3c(ccc4c5c([nH]c43)CCC5=O)cn2)c1 [II-e-22, N-(3-methyl-5-(7-oxo-7,8,9,1-tetrahydrocyclopenta[4,5]pyrrolo[2,3-f]isoquinolin-2-yl)phenyl)acrylamide]	6.30 to 7.00	6.30 to 7.00	
C=CC(=O)Nc1cc(-c2cc(-c3cc4c(s3)C(=O)N[C@H](C)CN4)ccn2)ccc1OCCOC [III-d-1, (R)—N-(2-(2-methoxyethoxy)-5-(4-(3-methyl-5-oxo-2,3,4,5-tetrahydro-1H-thieno[3,2-e][1,4]diazepin-7-yl)pyridin-2-yl)phenyl)acrylamide]		< 6.00	E (mass modification of ≥70%)
